In one series the target is Muscarinic M4 (Homo sapiens, UniProt P08173). Nature of the series: Receptor selectivity (Cerep). The format is binding.
A further series deals with CYP 2C9 (Homo sapiens, UniProt P11712). In words: CYP inhibition. The format is in vitro ADME.
Another series can be described thus: Protein binding, human. Conditions: human (H). It is filed as in vitro ADME.
Another series can be described thus: Rat bioavailability. Conditions: in vivo, po.
Series [1] concerns Sup-M2 ALCL tumor xenografts. Nature of the series: Anti-tumor efficacy, NPM-ALK positive Sup-M2 ALCL xenograft. The note with it: for anti-tumor efficacy: 12 days. How it is done: Anti-Tumor Efficacy Studies—General Protocol
The tumor volumes were then calculated with the formula of 0.5236*L*W*(L+W)/2.
Anti-Tumor Efficacy in NPM-ALK Positive Sup-M2 and Karpas-299 ALCL Tumor Xenograft Models in Mice

The test system of series [2] is NCI-H2228 NSCLC tumor xenografts. In words: Anti-tumor activity, EML4-ALK positive NCI-H2228 NSCLC xenograft.
Excerpt: Anti-Tumor Activity in EML4-ALK Positive (NCI-H2228 and NCI-H3122) NSCLC Tumor Xenografts in Mice with Oral Dosing
Generation of EML4-ALK-positive and EML4-ALK-negative NSCLC Subcutaneous Tumor Xenografts in Scid Mice Female Scid/Beige mice (6-8 weeks, Taconic, Hudson. N.Y.) were maintained 5/cage in microisolator units on a standard laboratory diet (Teklad Labchow, Harlan Teklad, Madison, Wis.). Animals were housed under humidity- and temperature controlled conditions and the light/dark cycle was set at 12-hour intervals. Mice were quarantined at least 1 week prior to experimental manipulation. […] The mice were monitored until the tumor xenograft volumes reached 200-500 mm3.
The length (L) and width (W) of each tumor were measured with vernier calipers and the mouse body weight was determined every two to three days. […] Percent tumor growth inhibition (% TGI) was calculated as follows: (tumor volume of the control group at end of treatment—tumor volume of the treated group at the end of treatment)/tumor volume of the control group at the end of treatment. […] Complete tumor regression (CR) was defined as the tumor volume of the treated group at the end of treatment being less than 5% of the tumor volume of the treated group as the start of treatment. Statistical analyses of tumor volumes and mouse body weights were carried out with the Mann-Whitney Rank Sum Test. Plasma and tumor samples were obtained at 2 hours post final dose at each dose level, and the compound levels in plasma and tumor lysates were measured by LC-MS/MS
[3] abbreviates: bid or qd oral dosing at 10 and 30 mg/kg.
Setting [4] is: four weeks of additional treatment at 55 mg/kg qd po.

Muscarinic M4, sequence (P08173 whole entry): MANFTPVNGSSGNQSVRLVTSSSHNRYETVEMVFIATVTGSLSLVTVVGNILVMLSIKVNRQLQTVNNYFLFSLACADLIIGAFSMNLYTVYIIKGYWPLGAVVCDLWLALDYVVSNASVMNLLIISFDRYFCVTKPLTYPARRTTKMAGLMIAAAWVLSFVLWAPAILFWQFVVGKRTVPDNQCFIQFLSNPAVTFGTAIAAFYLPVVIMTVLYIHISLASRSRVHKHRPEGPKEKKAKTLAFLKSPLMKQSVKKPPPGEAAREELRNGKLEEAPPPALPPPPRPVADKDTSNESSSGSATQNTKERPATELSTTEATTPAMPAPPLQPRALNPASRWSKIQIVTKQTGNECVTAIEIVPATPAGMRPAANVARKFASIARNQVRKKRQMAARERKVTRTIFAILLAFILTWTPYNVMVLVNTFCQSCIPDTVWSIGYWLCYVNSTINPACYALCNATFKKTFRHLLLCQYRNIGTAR
CYP 2C9, sequence (P11712 whole entry): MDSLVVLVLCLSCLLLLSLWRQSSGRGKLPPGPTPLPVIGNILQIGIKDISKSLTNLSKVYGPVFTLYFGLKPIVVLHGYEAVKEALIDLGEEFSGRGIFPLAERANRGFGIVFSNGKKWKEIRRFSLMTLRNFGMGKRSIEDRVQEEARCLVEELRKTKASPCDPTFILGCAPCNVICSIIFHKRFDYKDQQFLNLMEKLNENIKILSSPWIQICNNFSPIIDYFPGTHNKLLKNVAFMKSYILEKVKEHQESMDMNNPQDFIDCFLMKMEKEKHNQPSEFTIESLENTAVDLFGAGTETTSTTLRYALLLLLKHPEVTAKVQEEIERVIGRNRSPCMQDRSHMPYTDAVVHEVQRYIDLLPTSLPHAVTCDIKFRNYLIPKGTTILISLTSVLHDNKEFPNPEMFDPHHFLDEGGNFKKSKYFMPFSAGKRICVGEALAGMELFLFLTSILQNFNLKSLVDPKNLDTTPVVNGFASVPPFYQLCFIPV

For orientation: Ki means a dissociation constant, usually derived from enzyme kinetics or from competition with a known ligand. Low readings indicate tighter binding, high ones weaker binding. One may read the IC50 as the concentration needed to halve the response being measured. Read a low IC50 as higher potency. The term bioavailability denotes the share of a dose that reaches the circulation, judged against a reference dose that is usually intravenous. High values mean good availability, low ones poor availability. With `CNC(=O)c1ccccc1Nc1nc(Nc2ccc3c(c2OC)CCC[C@H](N2CCN(CCO)CC2)C3)ncc1Cl` [CEP-37440, 2-[[5-chloro-2-[[(6S)-6-[4-(2-hydroxyethyl)piperazin-1-yl]-1-methoxy-6,7,8,9-tetrahydro-5H-benzo[7]annulen-2-yl]amino]pyrimidin-4-yl]amino]-N-methyl-benzamide], the affinity on Muscarinic M4 corresponds to a Ki of 0.46 µM. In addition, at CYP 2C9, the IC50 was > 30 µM. Further, the Protein binding in the series “Protein binding, human” was 95 % bound. In the series “Rat bioavailability”, the bioavailability was > 42%. In addition, the anti-tumor efficacy entry in series [1] (10 mg/kg or lower, bid, po) is “No significant anti-tumor activity”; in series [1] (30 mg/kg bid po) it was “complete or near complete tumor regression”; in series [1] (30 mg/kg, qd, po), “partial tumor regression”; in series [1] (55 mg/kg qd po), “complete or near complete tumor regression”. The “tolerability, body weight” value was “well tolerated with no overt toxicity and no significant compound-related body weight loss” in series [1] (all dosing regimens); “well tolerated with no overt toxicity and no significant body weight loss” in series [2] (setting [4]). In addition, the “plasma level at 2 h post final dosing versus 2 h post single oral dose” value in series [1] (setting [3]) is given as 2-3 fold. The “tumor level at 2 h post final dosing versus 2 h post single oral dose” value in series [1] (setting [3]) is given as “more than 10 fold”. Also, the “mice with sustained tumor regressions, no tumor re-emergence” value in series [2] (40 days following cessation of treatment) was 100%. The “animals with sustained complete tumor regression” value in series [2] (setting [4]) came to 100%.
